Assay results: US9487530B2, “Transient protection of normal cells during chemotherapy” (G1 Therapeutics, Inc., priority 2013, dated 2016)
pIC50: −log10 of the molar value. Read-outs that look alike come from different tables or passages of the source. Each block holds one molecule with its values, some of them ahead of it.

Key:
[1] = Mouse pharmacokinetics, oral gavage and intravenous; type: in vivo
[2] = system: Rb-positive cell line (WM2664 or tHS68); test: EdU proliferation, RB-intact Cdk4/6-dependent cell line; type: cell-based; settings: 24 hours treatment
Method: (§1) The effect of Cdk4/6 inhibition on proliferation was measured by EdU incorporation. An RB-intact, Cdk4/6-dependent cell line (WM2664 or tHS68) and a panel of RB-negative SCLC cell lines (H69, H82, H209, H345, NCI417, or SHP-77) were analyzed for growth inhibition by the various CDK4/6 inhibitors.

[3] = system: RB-negative SCLC cell lines (H69, H82, H209, H345, NCI417, SHP-77); test: EdU proliferation, RB-negative SCLC cell lines; type: cell-based, human; settings: 24 hours treatment
Method: as §1

[4] = system: HSPCs; test: Bone marrow HSPC proliferation by EdU incorporation and flow cytometry; type: in vivo, mouse; settings: for EdU incorporation into HSPCs compared to control: 150 mg/kg oral gavage, 12 and 24 hours, FIG. 6A
Method: Mice were then sacrificed at the indicated times (0, 12, 24, 36, or 48 hours following compound administration), and bone marrow was harvested (n=3 mice per time point), as previously described (Johnson et al. J. Clin. Invest. (2010) 120(7), 2528-2536). Four hours before the bone marrow was harvested, mice were treated with 100 μg of EdU by intraperitoneal injection (Invitrogen). Bone marrow mononuclear cells were harvested and immunophenotyped using previously described methods and percent EdU positive cells were then determined (Johnson et al. J. Clin. Invest. (2010) 120(7), 2528-2536). In brief, HSPCs were identified by expression of lineage markers (Lin−), ScaI (S+), and c-Kit (K+).
Four hours before animals were sacrificed and the bone marrow was harvested, mice were treated with 100 μg of EdU by intraperitoneal injection. Three mice per group were sacrificed at 12 hours and the remaining three animals per group were sacrificed at 24 hours. Results are shown in FIG. 6A as the ratio of EdU positive cells for treated animals at 12 or 24 hour time points compared to control.
Further experiments were completed with Compound T examining dose response and longer periods of compound treatment. […] […].
Both compounds were administered at 150 mg/kg by oral gavage. One hour prior to harvesting bone marrow, EdU was IP injected to label cycling cells. Bone marrow was harvested at 12, 24, 36, and 48 hours after compound treatment and the percentage of EdU positive HSPC cells was determined at each time point.

[5] = system: bone marrow progenitors; test: Carboplatin-induced cytotoxicity in the bone marrow; type: in vivo, mouse; settings: 150 mg/kg oral gavage plus 90 mg/kg carboplatin i.p.; 24 hours
Method: To assess the effect of transient CDK4/6 inhibition by Compound GG on carboplatin-induced cytotoxicity in the bone marrow, FVB/n mice (n=3 per group) were treated with vehicle control, 90 mg/kg carboplatin by intraperitoneal injection, or 150 mg/kg Compound GG by oral gavage plus 90 mg/kg carboplatin by intraperitoneal injection. 24 hours after treatment bone marrow was harvested and the percent of cycling bone marrow progenitors was measured by EdU incorporation as explained earlier. […] EdU incorporation in control animals was normalized to 100% and compared to EdU incorporation for bone marrow from carboplatin treated animals or carboplatin and Compound GG treated animals.

[6] = system: Renal Proximal Tubule Epithelial Cells (Rb-positive); test: Cellular wash-out experiment, renal proximal tubule epithelial cells; type: cell-based, human; settings: 300 nM; compared to cells treated with compounds T, Q, GG, or U
Method: Alternatively, the same experiment was done using normal Renal Proximal Tubule Epithelial Cells (Rb-positive) obtained from American Type Culture Collection (ATCC, Manassas, Va.). Cells were grown in an incubator at 37° C. in a humidified atmosphere of 5% CO2 in Renal Epithelial Cell Basal Media (ATCC) supplemented with Renal Epithelial Cell Growth Kit (ATCC) in 37° C. humidified incubator.
Upon harvesting cells, samples were stained with propidium iodide staining solution and samples run on Dako Cyan Flow Cytometer. The fraction of cells in G0-G1 DNA cell cycle versus the fraction in S-phase DNA cell cycle was determined using FlowJo 7.2.2 analysis.

[7] = system: HSPC (LKS+) and myeloid progenitor cells (LKS-); settings: single 150 mg/kg oral gavage; FIG. 5; cited from earlier work
[8] = in mice; cited from earlier work
[9] = PD0332991 pharmacokinetics and HSPC arrest in humans; type: in vivo, human; settings: single administration
Method: When calculated half-life was longer than the duration of the experiment, the half-life was expressed as >the longest incubation time. The calculated half-life is also listed in parentheses. […] The timely resumption of cellular proliferation is necessary for tissue repair, and therefore an overly long period of arrest is undesirable in healthy cells such as HSPCs. The characteristics of a CDK4/6 inhibitor that dictate its arresting duration are its pharmacokinetic (PK) and enzymatic half-lives. Once initiated, a G1-arrest in vivo will be maintained as long as circulating compound remains at an inhibitory level, and as long as the compound engages the enzyme. […] […]. […] […]. These observations may explain the severe granulocytopenia seen with PD0332991 in the clinic.

[10] = in humans; cited from earlier work
[11] = biological target: T1, CDK2/CycE (Homo sapiens, UniProt P24941); test: CDK2/cyclinE kinase assay (Nanosyn, Caliper microfluidic); type: biochemical
T1 construct: Nanosyn (ran the assay as a service)
Method: (§2) Selected compounds disclosed herein were tested in CDK4/cyclinD1, CDK6/CycD3 CDK2/CycA and CDK2/cyclinE kinase assays by Nanosyn (Santa Clara, Calif.) to determine their inhibitory effect on these CDKs. The assays were performed using microfluidic kinase detection technology (Caliper Assay Platform). The compounds were tested in 12-point dose-response format in singlicate at Km for ATP. Phosphoacceptor substrate peptide concentration used was 1 μM for all assays and Staurosporine was used as the reference compound for all assays.

[12] = biological target: T2, CDK4/CycD1 (Homo sapiens, UniProt P11802); test: CDK4/cyclinD1 kinase assay (Nanosyn, Caliper microfluidic); type: biochemical
T2 construct: Nanosyn (ran the assay as a service)
T2 sequence (P11802 whole entry, species assumed): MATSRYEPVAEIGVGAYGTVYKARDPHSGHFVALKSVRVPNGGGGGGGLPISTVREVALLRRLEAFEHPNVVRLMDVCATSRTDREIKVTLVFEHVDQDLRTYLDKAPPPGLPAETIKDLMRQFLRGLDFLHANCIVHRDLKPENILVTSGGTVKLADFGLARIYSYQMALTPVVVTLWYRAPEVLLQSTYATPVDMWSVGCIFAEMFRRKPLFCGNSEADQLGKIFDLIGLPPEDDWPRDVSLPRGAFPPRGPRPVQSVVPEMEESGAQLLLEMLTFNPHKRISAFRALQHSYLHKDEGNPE
T2 sequence (P24385 whole entry partner, species assumed): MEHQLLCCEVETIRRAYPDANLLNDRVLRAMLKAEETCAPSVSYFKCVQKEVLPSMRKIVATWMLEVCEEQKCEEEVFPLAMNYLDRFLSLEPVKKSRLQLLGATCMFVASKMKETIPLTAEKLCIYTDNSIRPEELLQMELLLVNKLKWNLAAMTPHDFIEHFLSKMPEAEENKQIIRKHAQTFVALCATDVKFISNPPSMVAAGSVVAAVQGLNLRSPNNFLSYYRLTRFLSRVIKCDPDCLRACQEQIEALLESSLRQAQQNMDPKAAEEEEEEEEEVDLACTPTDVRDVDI
Method: as §2, with “assays. Specifics of each assay are as described below:” for “assays.”
CDK4/CyclinD1: Enzyme concentration: 1 nM; ATP concentration: 200 μM; Incubation time: 10 hr.

F (oral bioavailability) [1]: 52%
SMILES: CC(C)N1CCN(c2ccc(Nc3ncc4cc5n(c4n3)C3(CCCCC3)CNC5=O)nc2)CC1 [GG, 2′-((5-(4-isopropylpiperazin-1-yl)pyridin-2-yl)amino)-7′,8′-dihydro-6′H-spiro[cyclohexane-1,9′-pyrazino[1′,2′:1,5]pyrrolo[2,3-d]pyrimidin]-6′-one]
proliferation (cells in S-phase by EdU) [2]: inhibits
growth (cells in S-phase by EdU) [3]: does not affect the growth
EdU incorporation into HSPCs compared to control [4]: reduction in EdU incorporation at 12 hours which was starting to return to normal at 24 hours
cycling bone marrow progenitors (EdU incorporation) [5]: significant protection of bone marrow progenitors

SMILES: CC(=O)c1c(C)c2cnc(Nc3ccc(N4CCNCC4)cn3)nc2n(C2CCCC2)c1=O [PD0332991, 6-acetyl-8-cyclopentyl-5-methyl-2-(5-piperazin-1-yl-pyridin-2-ylammino)-8H-pyrido-[2,3-d]-pyrimidin-7-one]
time to return to baseline levels of cell division after wash out [6]: significantly longer
proliferation (cells in S-phase by EdU) [2]: inhibits
duration of sustained reduction in HSPC and myeloid progenitor cell EdU incorporation [7]: greater than 36 hours
time until HSPC and myeloid progenitor cells return to baseline cell division [7]: 48 h
growth (cells in S-phase by EdU) [3]: does not affect the growth
duration of sustained reduction in HSPCs ([4]; single 150 mg/kg oral dose, FIG. 7): greater than 36 hours
PK half-life [8]: 6 h
duration of cell cycle arrest of HSPC [9]: approximately one week
PK half-life [10]: 27 h

oral bioavailability [1]: low
SMILES: O=C1NCC2(CCCCC2)n2c1cc1cnc(Nc3ccc(N4CCNCC4)cn3)nc12 [Q, 2′-((5-(piperazin-1-yl)pyridin-2-yl)amino)-7′,8′-dihydro-6′H-spiro[cyclohexane-1,9′-pyrazino[1′,2′:1,5]pyrrolo[2,3-d]pyrimidin]-6′-one]
EdU incorporation into HSPCs compared to control [4]: some reduction at 12 hours and started to return to baseline at 24 hours

F (oral bioavailability) [1]: 67%
SMILES: O=C1NCC2(CCCCC2)n2c1cc1cnc(Nc3ccc(N4CCC(N5CCOCC5)CC4)cn3)nc12 [U, 2′-((5-(4-morpholinopiperidin-1-yl)pyridin-2-yl)amino)-7′,8′-dihydro-6′H-spiro[cyclohexane-1,9′-pyrazino[1′,2′:1,5]pyrrolo[2,3-d]pyrimidin]-6′-one]

pIC50 [11]: 5.36
pIC50 [12]: 8.13
SMILES: CCC(C)[C@@H]1CNC(=O)c2cc3cnc(Nc4ccc(N5CCNCC5)cn4)nc3n21 (stereo partly shown) [VVV]
